Test results: PubChem BioAssay (NCI)
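48-hour exposure; five concentrations; linearly interpolated endpoints. At the TGI there is no net growth.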

Tests used:
Experiment in all cases: growth of human tumour cells (NCI), 48 h
[1] = tested on: 786-0 renal
[2] = tested on: A498 renal
[3] = tested on: A549 NSCLC
[4] = tested on: BT-549 breast
[5] = tested on: CAKI-1 renal
[6] = tested on: COLO 205 colon
[7] = tested on: DU-145 prostate
[8] = tested on: EKVX NSCLC
[9] = tested on: HCC-2998 colon
[10] = tested on: HCT-116 colon
[11] = tested on: HCT-15 colon
[12] = tested on: HL-60(TB) leukemia
[13] = tested on: HOP-92 NSCLC
[14] = tested on: HS 578T breast
[15] = tested on: HT29 colon
[16] = tested on: IGROV1 ovarian
[17] = tested on: K-562 leukemia
[18] = tested on: KM12 colon
[19] = tested on: LOX IMVI melanoma
[20] = tested on: M14 melanoma
[21] = tested on: MALME-3M melanoma
[22] = tested on: MCF7 breast
[23] = tested on: MDA-MB-231 breast
[24] = tested on: MDA-MB-435
[25] = tested on: MDA-N
[26] = tested on: MOLT-4 leukemia
[27] = tested on: NCI-H226 lung
[28] = tested on: NCI-H23 lung
[29] = tested on: NCI-H460 lung
[30] = tested on: NCI-H522 lung
[31] = tested on: NCI/ADR-RES ovarian
[32] = tested on: OVCAR-3 ovarian
[33] = tested on: OVCAR-4 ovarian
[34] = tested on: OVCAR-5 ovarian
[35] = tested on: OVCAR-8 ovarian
[36] = tested on: PC-3 prostate
[37] = tested on: RPMI-8226 leukemia
[38] = tested on: RXF 393 renal
[39] = tested on: SF-268 CNS
[40] = tested on: SF-539 CNS
[41] = tested on: SK-MEL-2 melanoma
[42] = tested on: SK-MEL-28 melanoma
[43] = tested on: SK-MEL-5 melanoma
[44] = tested on: SK-OV-3 ovarian
[45] = tested on: SN12C renal
[46] = tested on: SNB-19 CNS
[47] = tested on: SNB-75 CNS
[48] = tested on: SR leukemia
[49] = tested on: SW-620 colon
[50] = tested on: T-47D breast
[51] = tested on: TK-10 renal
[52] = tested on: U251 CNS
[53] = tested on: UACC-257 melanoma
[54] = tested on: UACC-62 melanoma
[55] = tested on: UO-31 renal
[56] = tested on: ACHN renal
[57] = tested on: CCRF-CEM leukemia
[58] = tested on: HOP-62 NSCLC
[59] = tested on: SF-295 CNS

Measured: TGI

Nc1[nH]c(=S)c2c(N)n[nH]c2c1C(=O)Nc1ccccc1
not listed: [56] | [57] | [58] | [59]
> 100 µM: all other assays above

O=c1oc2cc(N=Cc3ccc4c(c3)OCO4)ccc2c2ccccc12
50.6 µM: [8]
67.2 µM: [38]
39.7 µM: [47]
not listed: [9] | [37]
> 100 µM: all other assays above

C/C=C(\C)C(=O)OC1C(C)=C2C(C1OC(=O)CCCC)C(C)(OC(C)=O)CC(OC(=O)CCCC)C1(O)C2OC(=O)C1(C)O (stereo not drawn)
> 92.2 µM: [5]
2.62 µM: [32]
3.67 µM: [58]
4.53 µM: [20]
3.96 µM: [41]
> 93.3 µM: [34]
71.2 µM: [55]
2.09 µM: [10]
> 21.1 µM: [37]
2.08 µM: [19]
2.58 µM: [6]
> 81 µM: [48]
9.72 µM: [15]
13.2 µM: [54]
> 37.5 µM: [36]
> 42.5 µM: [18]
> 25.8 µM: [27]
> 60.1 µM: [1]
5.87 µM: [23]
7.02 µM: [30]
48.6 µM: [47]
> 47.4 µM: [28]
not listed: [21] | [43] | [49]
> 100 µM: all other assays above

COc1ccc(OC2OC(COC(c3ccccc3)(c3ccc(OC)cc3)c3ccc(OC)cc3)C(O)C(O)C2O)cc1 (stereo not drawn)
24.5 µM: [58]
27 µM: [4]
14 µM: [47]
17.2 µM: [25]
7.05 µM: [20]
9.85 µM: [6]
29.2 µM: [31]
11.7 µM: [30]
46.4 µM: [11]
35.7 µM: [7]
18.1 µM: [23]
21.2 µM: [21]
16.4 µM: [9]
10.1 µM: [42]
> 100 µM: [37] | [48]
5.96 µM: [15]
9.59 µM: [36]
3.95 µM: [19]
16.1 µM: [43]
14.1 µM: [54]
5.39 µM: [57]
7.59 µM: [12]
9.21 µM: [29]
18.8 µM: [44]
13 µM: [24]
20.7 µM: [34]
5.87 µM: [1]
20.2 µM: [16]
14.7 µM: [18] | [22] | [32]
10.7 µM: [10]
4.79 µM: [55]
16.2 µM: [5]
25.3 µM: [2]
26.7 µM: [46]
14.3 µM: [56] | [49]
21.4 µM: [50]
4.55 µM: [26]
13.3 µM: [52]
11 µM: [39]
11.8 µM: [3]
15.3 µM: [28]
20.1 µM: [53]
17 µM: [40]
19.1 µM: [14]
17.3 µM: [8]
28.3 µM: [27]
15 µM: [59] | [41]
6.59 µM: [45]
10.2 µM: [17]

CC(C)(C)NCC(O)c1ccc(O)c(CO)n1 (stereo not drawn)
not listed: [17] | [21] | [57]
> 100 µM: all other assays above

O=C1C2C(c3ccccc3)NC(c3ccccc3)C1C(c1ccccc1)NC2c1ccccc1 (stereo not drawn)
not listed: [9]
> 100 µM: all other assays above

O=C(O)C1C(C(=O)O)C23CC2(C(=O)O)C2(C(=O)O)CCC3=C3CCCC312 (stereo not drawn)
59.2 µM: [56]
44.8 µM: [15]
33.2 µM: [55]
51.6 µM: [16]
20 µM: [29]
47.3 µM: [34]
73.6 µM: [46]
95.5 µM: [17]
36.6 µM: [44]
93.5 µM: [47]
22.5 µM: [39]
36.4 µM: [28] | [45]
7.8 µM: [14]
38.1 µM: [51]
23.8 µM: [52]
16 µM: [30]
16.8 µM: [6]
49.8 µM: [24]
81.9 µM: [5]
36.5 µM: [13]
66.7 µM: [10]
27.5 µM: [27]
53.5 µM: [50]
38.8 µM: [41]
23.5 µM: [54]
18.3 µM: [12]
63.3 µM: [22]
89.2 µM: [25]
20.8 µM: [59]
29.9 µM: [42]
37.7 µM: [38]
64.4 µM: [35]
88.4 µM: [18]
69.9 µM: [4]
34.1 µM: [7]
15.2 µM: [21]
6.6 µM: [48]
22.4 µM: [58]
34.8 µM: [40]
11.7 µM: [32]
37.9 µM: [37]
31.2 µM: [36]
15.4 µM: [53]
80.6 µM: [33]
62.6 µM: [2]
28.1 µM: [19]
54.3 µM: [8]
41 µM: [23]
30.2 µM: [26]
18.2 µM: [43]
not listed: [9] | [57]
> 100 µM: all other assays above
